The subject of this assay is CEM cells HIV-1 protection, formazan growth assay. The assay is described as follows: NCI AIDS Antiviral Assay. As to conditions: for IC50: measured here: growth of uninfected CEM cells. The gist of the method: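 Soluble formazan readout of cell growth; CEM cells ± HIV-1; 5 drug concs. ≥50% protection → retest; ≥50% again = moderately active; reproducible 100% = confirmed active.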

The source made the active and inactive calls.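 The calls were made as follows: active = compounds giving half or more protection of infected cells from virus-caused growth loss, again on retest; inactive = the rest.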

Among the data in PubChem BioAssay AID179 (DTP/NCI, 2004) are EC50, IC50 and outcome values, retold here.

A word on the EC50: it is the midpoint of the concentration-response curve. The IC50 is the concentration that inhibits the measured activity by half. Higher therefore signals lower potency. For `O=C1CNc2cc(N3CCN(c4cccc(C(F)(F)F)c4)CC3)ccc2N1`, the EC50 is more than 200 µM and the IC50 was found to be 75.9 µM.

As to `C[C@H]1O[C@@H](C(C)(C)C)OC(=O)[C@@H]1C(OC(=O)c1ccccc1)c1cccc2ccccc12` (some centres undefined), the EC50 is more than 200 µM and the concentration for half-maximal inhibition (IC50) amounted to 83.2 µM.

With `CC1CC(=O)Nc2ccccc2N1` (centres undefined), the EC50 is more than 200 µM and the 50% inhibitory concentration (IC50) was more than 200 µM.

For the compound `CCC(C)C(CC)C(=O)NC(N)=O` (centres undefined), the EC50 was more than 200 µM and the IC50 was more than 200 µM.

In the case of `Cc1cc(=O)oc2cc(O/C(=C\c3ccccc3)c3nc4ccccc4c(=O)o3)ccc12`, the outcome was inactive.

For `COC1CC[C@@H]2CC(=O)CC[C@]2(C)C1=O` (some centres undefined), the outcome was inactive.

For `CCCCCCCCC#CCCCCCCC(F)C(=O)O` (centres undefined), the result was inactive.

`C=CCNC1=C2C[C@@H](C)C[C@@H](OC)[C@@H](OC(=O)CCCN)[C@H](C)/C=C(\C)[C@@H](OC(N)=O)[C@H](OC)/C=C\C=C(/C)C(=O)NC(=CC1=O)C2=O`: the EC50 is more than 200 µM and the IC50 came to 5.5 µM.

`Cc1ccc(C)n1N1CCOCC1`: the EC50 was more than 200 µM and the IC50 was 115 µM.

Regarding `C[C@H]1Oc2cc(O)c3ccc(=O)oc3c2C(=O)[C@@H]1C`, the EC50 is more than 200 µM and the half-inhibitory concentration (IC50) stood at 17 µM.

Turning to `Nc1c(Cl)ncnc1NCCO`, the EC50 is more than 200 µM and the IC50 is more than 200 µM.

In the case of `C/C(=N\NC(=S)N1CCN(c2ccccn2)CC1)c1ncccn1`, the EC50 was more than 39.8 µM and the IC50 was 0.0479 µM.

As to `CC(=O)O/N=C/c1ncccc1OC(C)=O`, the EC50 is more than 1120 µM and the IC50 is more than 1120 µM.

As to `NC(C(=O)O)C1=CCCCCC1` (centres undefined), the EC50 was more than 200 µM and the half-inhibitory concentration (IC50) was more than 200 µM.

Regarding `c1ccc(-c2cc(N3CCOCC3)c3ccccc3n2)cc1`, the result was inactive.

Consider `O=C1/C(=C/c2ccco2)NC(=S)N1CN1CCOCC1`, for which the EC50 was more than 200 µM and the 50% inhibitory concentration (IC50) worked out at 91.2 µM.

On to `C/C(=C\C(=O)OCCCCCCCC(=O)Nc1c2sscc-2[nH]c1=O)C(O)[C@@H]1OCC(C/C=C/[C@@H](C)[C@H](C)O)[C@@H](O)[C@H]1O` (some centres undefined), for which the EC50 is more than 200 µM and the IC50 came to 3.16 µM.

Regarding `CC(=O)OC1CCC2(C)C(=CCC3C2CCC2(C)C3CC3N(c4ccccc4)C32C(C)=O)C1` (centres undefined), the EC50 is 6.46 µM and the IC50 stood at 20 µM.

`CCn1c(O)c(C=Nc2ccccc2)s/c1=N/Nc1nc(-c2ccc(O)c(O)c2)cs1`: the EC50 was more than 200 µM and the half-inhibitory concentration (IC50) is 14.1 µM.

With `COc1ccc(-c2c(C#N)c(=O)nc(SC)n2C2OCC(OC(C)=O)C(OC(C)=O)C2OC(C)=O)cc1` (centres undefined), the EC50 is more than 200 µM and the IC50 is 35.5 µM.

On to `COc1ccc(/C=C(\Cl)c2ccc(OC)cc2)cc1`, for which the EC50 was more than 200 µM and the half-inhibitory concentration (IC50) is more than 200 µM.

Consider `C=C=C(Sc1ccccc1)C(C)(C)OC(C)=O`, for which the EC50 is more than 50.1 µM and the half-maximal inhibitory concentration (IC50) turned out to be 14.5 µM.

As for `COc1ccc(-n2c(=O)c3[nH]cnc3n(-c3ccc(OC)cc3)c2=S)cc1`, the EC50 was more than 200 µM and the half-inhibitory concentration (IC50) is more than 200 µM.

With `NC(=S)NNC(=O)CCC(=O)Nc1ccc(Cl)cc1Cl`, the EC50 is more than 107 µM and the concentration for half-maximal inhibition (IC50) is more than 107 µM.

For `N#Cc1c(O)c(N=Nc2ccccc2F)c(=O)n2c1[nH]c1ccccc12`, the EC50 was more than 200 µM and the half-inhibitory concentration (IC50) turned out to be 18.6 µM.

In the case of `Cc1nn(-c2ccccc2)c2nc3ccc(Cl)cc3c(-c3ccccc3)c12`, the EC50 was more than 200 µM and the IC50 is more than 200 µM.

For the compound `CC[C@@]1(C[C@H]2C[C@@]3(C(=O)OC)c4[nH]c5ccccc5c4CCN3C2=O)COC2(CCCCC2)O1`, the EC50 was more than 200 µM and the IC50 was found to be 35.5 µM.

As for `Nc1ccc(C(=O)N/C(=C\C=C\c2ccco2)c2nc3c4c(ccc3[nH]2)C(=O)c2ccccc2C4=O)cc1`, the result was inactive.

In the case of `COc1ccc2c(c1)C(=O)CC(c1ccccc1OC)O2` (centres undefined), the EC50 was more than 200 µM and the IC50 worked out at 34.7 µM.

Turning to `C/C(=N\NC(N)=O)C(CN1CCCCC1)C(c1ccccc1)c1c(O)c2ccccc2oc1=O` (centres undefined), the EC50 was more than 87.1 µM and the IC50 was found to be 46.8 µM.

Turning to `C/C(=N\Nc1ccccc1)C(CN(C)C)C(c1ccccc1)c1c(O)c2ccccc2oc1=O` (centres undefined), the EC50 is more than 27.5 µM and the IC50 is more than 27.5 µM.

With `Cc1ccc(NC(=S)N/C=C(\c2ccccc2)S(=O)Cc2ccccc2)c(C)c1` (centres undefined), the EC50 is more than 200 µM and the half-maximal inhibitory concentration (IC50) stood at 93.3 µM.

Consider `COc1cccc2c(N)c3cccc(C(=O)NCCN(C)C)c3nc12`, for which the EC50 was more than 0.2 µM and the concentration for half-maximal inhibition (IC50) is 0.0331 µM.

For the compound `C=CC1(C)C=C2C(O)CC3C(C)(C(=O)OC)CCCC3(C)C2CC1` (centres undefined), the EC50 was more than 21.9 µM and the IC50 came out at 11 µM.

As for `Cc1cc(Cl)ccc1NC(=O)C(=O)Cc1ccc([N+](=O)[O-])c([N+](=O)[O-])c1CC(=O)C(=O)Nc1ccc(Cl)cc1C`, the EC50 was more than 309 µM and the IC50 was found to be 129 µM.

With `N#C/C(=C\c1ccc(O)c(O)c1)C(=O)NCCCCCCNC(=O)/C(C#N)=C/c1ccc(O)c(O)c1`, the EC50 is more than 200 µM and the IC50 was more than 200 µM.

Regarding `CC1=C(C(=O)Nc2ccc([N+](=O)[O-])cc2)C(c2cccc([N+](=O)[O-])c2)C(C(=O)Nc2ccc([N+](=O)[O-])cc2)=C(C)N1`, the EC50 was more than 4.9 µM and the 50% inhibitory concentration (IC50) was more than 4.9 µM.

Regarding `NCC(NC(=O)OCc1ccccc1)C(=O)O` (centres undefined), the EC50 was more than 105 µM and the concentration for half-maximal inhibition (IC50) was more than 105 µM.

Consider `CC1=C[C@@H]2c3cc(c(O)cc3O)C(=O)[C@H]3C(c4ccc(O)cc4O)CC(C)=C[C@@H]3c3cc(c(O)cc3O)C(=O)C2C(c2ccc(O)cc2O)C1` (some centres undefined), for which the outcome was inactive.

On to `Cc1cc(C)nc(NS(=O)(=O)c2ccc(Nc3c4ccccc4nc4ccc(C(=O)Nc5ccc(S(=O)(=O)N=C(N)N)cc5)cc34)cc2)n1`, for which the EC50 is more than 93.3 µM and the concentration for half-maximal inhibition (IC50) stood at 47.9 µM.

On to `COC(=O)N1C2C(C[C@@]1(C)C(=O)OC)c1ccccc1N2S(=O)(=O)c1ccccc1` (some centres undefined), for which the EC50 is more than 200 µM and the half-maximal inhibitory concentration (IC50) was more than 200 µM.

`CSc1cc(-c2ccccn2)nc(-c2ccccn2)c1.CSc1cc(-c2ccccn2)nc(-c2ccccn2)c1.[O-][Cl+3]([O-])([O-])[O-].[Zn+2]`: the EC50 was more than 200 µM and the half-inhibitory concentration (IC50) was determined as 0.0631 µM.

For `Cc1cc2c(C(C)C)c(O)c(O)c(C=Nc3cccc(O)c3)c2c(O)c1-c1c(C)cc2c(C(C)C)c(O)c(O)c(C=Nc3cccc(O)c3)c2c1O`, the result was inactive and the IC50 was 8.13 µM.

As to `O=C1CC(c2cccc(Cl)c2)n2cccc21` (centres undefined), the EC50 was more than 200 µM and the IC50 worked out at 93.3 µM.

On to `CCSc1ccc([N+](=O)[O-])c2c(SCC)c3ccccc3nc12`, for which the outcome was inactive.

On to `Cc1ccc2c(c1)C1(OC(=O)c3ccccc31)c1ccc(F)cc1O2` (centres undefined), for which the EC50 was more than 91.2 µM and the concentration for half-maximal inhibition (IC50) is 22.9 µM.

Consider `COc1ccc(C2NC(=O)N3C(c4ccc(OC)c(OC)c4)NC(=O)N23)cc1OC` (centres undefined), for which the EC50 was more than 200 µM and the half-inhibitory concentration (IC50) is more than 200 µM.

For `O=[N+]([O-])C(Cl)C(Cl)c1ccc(Cl)cc1` (centres undefined), the EC50 was more than 200 µM and the half-inhibitory concentration (IC50) was 7.41 µM.

`O=Cc1cc2c(cc1-c1cc3c(cc1C=O)OCO3)OCO2`: the EC50 was more than 107 µM and the IC50 was more than 107 µM.

`Cn1c(=O)c2nc3c(=O)n(C)c(=O)n(CC(N)=O)c3nc2n(C)c1=O`: the EC50 was more than 200 µM and the 50% inhibitory concentration (IC50) is more than 200 µM.

As for `CC(=O)OC1C2CCC1C1C2C2(Cl)C(Cl)=C(Cl)C1(Cl)C2(Cl)Cl` (centres undefined), the result was inactive.

For the compound `CC(=O)NC1C(OCc2ccccc2)OC(CO)C(O)C1OC(C)C(=O)NC(C)C(=O)NC(CCC(=O)NCCCCNc1c2ccccc2nc2cccc([N+](=O)[O-])c12)C(N)=O` (centres undefined), the EC50 is more than 200 µM and the half-inhibitory concentration (IC50) came out at 0.0631 µM.

`Cn1c(=O)c(=O)n(C)c2nc3ccccc3nc21`: the EC50 is more than 4.27 µM and the half-maximal inhibitory concentration (IC50) is more than 4.27 µM.

Regarding `O=C(CCl)N1CCC(CC2(c3cc4ccccc4[nH]3)OCCO2)CC1`, the EC50 was more than 200 µM and the IC50 was 5.01 µM.

Consider `Oc1cc(O)c2c(-c3c(O)c(-c4ccc(O)c(O)c4)[o+]c4cc(O)cc(O)c34)c(O)c(-c3ccc(O)c(O)c3)[o+]c2c1`, for which the outcome was inactive.

As to `CCOC(=O)c1cc(C(=O)OCC)c2ccccn2c1=O`, the EC50 was more than 100 µM and the IC50 is 43.7 µM.

For `COC1C(OC(=O)c2ccc(C)[nH]2)C(O)C(Oc2ccc3c(O)c(NC(=O)c4ccc(O)c(CC=C(C)C)c4)c(=O)oc3c2Cl)OC1(C)C` (centres undefined), the EC50 is more than 200 µM and the IC50 turned out to be 15.8 µM.

On to `COC(=O)C1=CC(=O)N2CCN=C2S1`, for which the EC50 is more than 200 µM and the concentration for half-maximal inhibition (IC50) is more than 200 µM.

With `CCCNC(=O)N(C)S(=O)(=O)c1ccc(Cl)cc1`, the outcome was inactive.

Turning to `Cc1ccc(N/N=C/C2=CC(C)(C)C(C#N)(C#N)C(O)=C2C#N)cc1`, the EC50 is more than 200 µM and the IC50 was determined as 6.61 µM.

As to `Oc1ccccc1C=Nc1ccc(SSc2ccc(N=Cc3ccccc3O)cc2)cc1`, the EC50 is more than 200 µM and the half-maximal inhibitory concentration (IC50) was found to be 27.5 µM.

With `COc1ccc(C2=C/C(=C3\C(=O)Oc4ccccc4C3=O)SS2)cc1`, the EC50 was more than 200 µM and the half-inhibitory concentration (IC50) was more than 200 µM.

Regarding `O=C(O)C12CCC(CC1=O)C2` (centres undefined), the EC50 was more than 200 µM and the half-maximal inhibitory concentration (IC50) was more than 200 µM.

In the case of `N#Cc1c(N)c2c(c(-c3ccccc3)c1-c1ccccc1)C(=O)N(O)C2=O`, the EC50 is more than 200 µM and the IC50 was 44.7 µM.

Consider `COc1ccc(-n2nc(C)ccc2=O)cc1`, for which the EC50 was more than 1150 µM and the half-maximal inhibitory concentration (IC50) came out at 776 µM.

In the case of `O=C1CCC(=O)c2cc(Br)ccc2N1`, the EC50 is more than 141 µM and the half-inhibitory concentration (IC50) was more than 141 µM.

In the case of `O=C1OCC(O)C(C2OC(=O)c3cc(O)c(O)c(O)c3-c3c(O)c(O)c(O)c4c3C(=O)OC2C4c2c(O)cc(O)c3c2OC(c2ccc(O)c(O)c2)C(O)C3)OC(=O)c2cc(O)c(O)c(O)c2-c2c1cc(O)c(O)c2O` (centres undefined), the EC50 was more than 22.4 µM and the concentration for half-maximal inhibition (IC50) is more than 22.4 µM.
